Legend:
citrate synthase = conditions: Angew. Chem., 92, 133/1980; cited from earlier work
HMG-CoA-reductase = conditions: cited from earlier work
HMG-CoA synthase = conditions: J. Biol. Chem., 257, 2842/1982; cited from earlier work
Rat hepatocytes = test: 14C-acetate incorporation into cholesterol (cholesterol biosynthesis) in rat hepatocytes; type: cell-based; conditions: Hepatocyte, end concentration about 10^-5 M, 48 h incubation, DMSO, related to solvent treated control
Method: Rat hepatocytes were isolated according to Berry and Friend (J. Cell Biol., 43, 506-520 (1969)) and cultured as described by Davis et al. (J. Biol. Chem., 254, 2010-2016 (1979)). 2-^14 C-Acetate was used as a precursor for determination of the cholesterol biosynthesis. Newly synthetized cholesterol was determined by liquid scintillation spectrometry after extraction of radiolabelled sterols from the culture medium (Can. J. Biochem. Physiol., 37, 912-917 (1959)). The test compounds were dissolved in dimethylsulfoxide. 1 μl of this solution was given to 1 ml of the culture medium. The percentage of inhibition of ^14 C-acetate incorporation is related to a solvent treated control.
The compounds listed in the following table were tested with respect to their effect on the rate hepatocytes according to the method mentioned above. The compounds were dissolved in DMSO. 1 μl of this solution was added to 1 ml of the culture medium.
The end concentration was about 10^-5 M, the period of the incubation was 48 h. The ^14 C-acetate incorporation in cholesterol was determined.

In the case of `CC(C)(COP(=O)(O)OP(=O)(O)OC[C@H]1O[C@@H](n2cnc3c(N)ncnc32)[C@H](O)[C@@H]1OP(=O)(O)O)[C@@H](O)C(=O)NCCC(=O)NCCSCCC(O)(CC(=O)O)C(=O)O` (stereo partly drawn) [3,4-dicarboxy-3-hydroxybutylcoenzyme A], the “inhibiting action on the enzyme citrate synthase (in words)” value (citrate synthase) is listed as “exerts an inhibiting action”.

For `CC(O)(CCSCCNC(=O)CCNC(=O)[C@H](O)C(C)(C)COP(=O)(O)OP(=O)(O)OC[C@H]1O[C@@H](n2cnc3c(N)ncnc32)[C@H](O)[C@@H]1OP(=O)(O)O)CC(=O)O` (stereo partly drawn) [3-hydroxy-3-methyl-4-carboxybutyl-coenzyme A], the “inhibiting action on the enzyme HMG-CoA-reductase (in words)” value (HMG-CoA-reductase; FEBS Letters, 128, 145/1981) is listed as “possesses an inhibiting action”.

In the case of `CC(=O)CCSCCNC(=O)CCNC(=O)[C@H](O)C(C)(C)COP(=O)(O)OP(=O)(O)OC[C@H]1O[C@@H](n2cnc3c(N)ncnc32)[C@H](O)[C@@H]1OP(=O)(O)O` [3-oxobutyl-coenzyme A], the “substrate for HMG-CoA synthase (in words)” value (HMG-CoA synthase) is listed as “substrate”.

For `CC[C@H](C)C(=O)O[C@H]1CCC=C2C=C[C@H](C)[C@H](CC[C@@H]3C[C@@H](O)CC(=O)O3)[C@H]21` [Compactin, 2-Methylbutanoic acid 1,2,3,7,8,8α-hexahydro-7-methyl-8-[2-(tetrahydro-4-hydroxy-6-oxo-2H-pyran-2-yl)ethyl]-1-naphthalenyl ester], the “inhibitor of HMG-CoA reductase (in words)” value (HMG-CoA-reductase; comparison compound) is given as “potent inhibitor” and the inhibition at 10 µM (Rat hepatocytes) is given as 59%.

With `CC(O)(CCSCCNC(=O)CCNC(=O)C(O)C(C)(C)CO)CC(=O)O` (stereo not drawn) [Example 2, 9,13-Diaza-10,14-dioxo-6-thia-3,15,17-trihydroxy-3,16,16-trimethylheptadecanoic acid] the inhibition at 10 µM (Rat hepatocytes) was 33%.

`CCOC(=O)CC(C)(C)CCSCCNC(=O)CCNC(=O)C(O)C(C)(C)CO` (stereo not drawn) [Example 11, 9,13-Diaza-15,17-dihydroxy-10,14-dioxo-3,3,16,16-tetramethyl-6-thiaheptadecanoic acid ethyl ester] showed an inhibition at 10 µM (Rat hepatocytes) of 28%.

Work on `CC(CC(=O)NCCSCCC(C)(C)CC(=O)O)NC(=O)c1ccccc1` (stereo not drawn) [Example 15d, 9,13-diaza-10,14-dioxo-14-phenyl-6-thia-3,3,12-trimethyltetradecanoicacid] yielded an inhibition at 10 µM (Rat hepatocytes) of 12%.

`O=C(O)CCCCSCCNC(=O)CNCc1ccccc1` [Example 16, 9,12-Diaza-10-oxo-13-phenyl-6-thiatridecanoic acid] gave an inhibition at 10 µM (Rat hepatocytes) of 10%.

Source: patent US4609673A, “Carboxylic acid derivatives, processes for the preparation thereof and pharmaceutical compositions containing them” (Boehringer Mannheim GmbH, priority 1984, dated 1986)
